Experimental data as given in patent publication US12384756B2, “Piperidinedione derivatives” (INNOCURE THERAPEUTICS, INC., priority 2021, dated 2025).
Like-named read-outs stand apart in the source and are kept apart here.

Columns and labels:
[1] = tested on: Human breast cancer cell line [MDA-MB-231]; assay: Anti-proliferative activity (WST-8) of BRD4 targeted PROTAC in MDA-MB-231; type: cell-based; settings: Homo sapiens, MDA-MB-231, 72 hours
Protocol: (§1) Human breast cancer cell line [MDA-MB-231] was cultured in RPMI medium with 10% petal bovine serum, penicillin [100 U/ml] and streptomycin [[…]]. The synthesized compound was prepared as a stock solution of 10 mM or 50 mM dissolved in DMSO [dimethyl sulfoxide], and it was sequentially diluted to treat the cell line.
In order to observe inhibition of cell growth, cells were aliquoted into concentrations of 5,000 cells/well at 96 well plates, and then were treated with samples prepared at various concentrations for 72 hours. The cell survival was calculated by steps of adding in each well […] of water soluble tetrazolium salt (WST-8) which produces formazon in response to dehydrogenase present in the electron transport chain in mitochondria, incubating for 2 hours, measuring the absorbance at 450 nm, and calculating by GraphicPad Prism 8.0 software.

[2] = target: BRD4 (Homo sapiens, UniProt O60885); assay: BRD4 protein degradation by western blot in MDA-MB-231 cells; type: cell-based; design: BRD4 expressed in cells; endogenous in cells; host or cells: MDA-MB-231; settings: MDA-MB-231, 24 hours; for DC50: 50% inhibition of protein expression, read-out: DC50 of BRD4-targeted PROTAC
Protocol: as §1
To evaluate the PROTAC's degradation ability to BRD4 expressed in cells, the cells were aliquoted into a 6 well plate at a concentration of 5×10^5 cells/ml, and then the sample was treated for 24 hours. In order to conduct western blotting assay to confirm protein expression, the cell treated with the compound was treated for 30 minutes with 70 μL of RIPA buffer wherein protease inhibitor is added. Then, cell lysate was collected on ice using a scraper and centrifuged at 4° C. 15,000 rpm for 30 minutes to obtain a supernatant containing protein. Then, SDS-PAGE is conducted for 10 μg of protein per each sample, and the protein is transferred to a membrane. The protein is reacted with antibodies of anti-BRD4, anti-tubulin and anti-GAPDH at 4° C. for 16 hours, and then, reacted with secondary antibodies at room temperature for 1 hour. The protein expression is confirmed using SUPERSIGNAL™ WEST PICO PLUS chemiluminescence substrate and image analyzer. The protein expression was normalized based on the expression value of β-tublin or GAPDH. The amount of protein expression in each sample was measured in % based on the sample treated with 0.1% DMSO vehicle which was set to 100%. The amount of protein expression was quantified using the IMAGE J PROGRAM. The change in the amount of protein expression due to the treatment of compound (DC50: the concentration of compounds where the 50% inhibition of protein expression is achieved) was calculated using […] PRISM 8.0 software.

[3] = WST-8, read-out: IC50 of BRD4-targeted PROTAC (cell proliferation)
[4] = read-out: concentration at which cancer cell proliferation is effectively inhibited

Compound	IC50 [1, 3]	DC50 [2]	IC50 [1, 4]	BRD4 degradation (in words) [2]
Cc1sc2c(c1C)C(c1ccc(Cl)cc1)=N[C@@H](CC(=O)NCCOc1cccc3cnn(C4CCC(=O)NC4=O)c(=O)c13)c1nnc(C)n1-2 (stereo partly drawn) [Example 45, 2-((S)-4-(4-chlorophenyl)-2,3,9-trimethyl-6H-thieno[3,2-f][1,2,4]triazolo[4,3-a][1,4]diazepin-6-yl)-N-(2-((3-(2,6-dioxopiperidin-3-yl)-4-oxo-3,4-dihydrophthalazin-5-yl)oxy)ethyl)acetamide]	> 1000 nM	108 nM	–	–
Cc1sc2c(c1C)C(c1ccc(Cl)cc1)=N[C@@H](CC(=O)NCc1cn(CCOCCOCCNc3cccc4c(=O)n(C5CCC(=O)NC5=O)ncc34)nn1)c1nnc(C)n1-2 (stereo partly drawn) [Ex. 33, 2-[(9S)-7-(4-chlorophenyl)-4,5,13-trimethyl-3-thia-1,8,11,12-tetraazatricyclo[8.3.0.0^2,6]trideca-2(6),4,7,10,12-pentaen-9-yl]-N-[(1-{2-[2-(2-{[2-(2,6-dioxopiperidin-3-yl)-1-oxo-1,2-dihydrophthalazin-5-yl]amino}ethoxy)ethoxy]ethyl}-1H-1,2,3-triazol-4-yl)methyl]acetamide]	> 1000 nM	171 nM	–	–
Cc1sc2c(c1C)C(c1ccc(Cl)cc1)=N[C@@H](CC(=O)NCc1cn(CCOCCOCCNc3cccc4cnn(C5CCC(=O)NC5=O)c(=O)c34)nn1)c1nnc(C)n1-2 (stereo partly drawn) [Ex. 31, 2-((S)-4-(4-chlorophenyl)-2,3,9-trimethyl-6H-thieno[3,2-f][1,2,4]triazolo[4,3-a][1,4]diazepin-6-yl)-N-((1-(2-(2-(2-((3-(2,6-dioxopiperidin-3-yl)-4-oxo-3,4-dihydrophthalazin-5-yl)amino)ethoxy)ethoxy)ethyl)-1H-1,2,3-triazol-4-yl)methyl)acetamide]	> 1000 nM	–	–	–
Cc1sc2c(c1C)C(c1ccc(Cl)cc1)=N[C@@H](CC(=O)NCCNc1cccc3cnn(C4CCC(=O)NC4=O)c(=O)c13)c1nnc(C)n1-2 (stereo partly drawn) [Example 43, 2-((S)-4-(4-chlorophenyl)-2,3,9-trimethyl-6H-thieno[3,2-f][1,2,4]triazolo[4,3-a][1,4]diazepin-6-yl)-N-(2-((3-(2,6-dioxopiperidin-3-yl)-4-oxo-3,4-dihydrophthalazin-5-yl)amino)ethyl)acetamide]	> 1000 nM	185 nM	–	–
Cc1sc2c(c1C)C(c1ccc(Cl)cc1)=N[C@@H](CC(=O)Nc1cccc(OCCOCCOCCNc3cccc4c(=O)n(C5CCC(=O)NC5=O)ncc34)c1)c1nnc(C)n1-2 (stereo partly drawn) [Ex. 30, 2-[(9S)-7-(4-chlorophenyl)-4,5,13-trimethyl-3-thia-1,8,11,12-tetraazatricyclo[8.3.0.0^2,6]trideca-2(6),4,7,10,12-pentaen-9-yl]-N-(3-{2-[2-(2-{[2-(2,6-dioxopiperidin-3-yl)-1-oxo-1,2-dihydrophthalazin-5-yl]amino}ethoxy)ethoxy]ethoxy}phenyl)acetamide]	> 1000 nM	–	–	–
Cc1sc2c(c1C)C(c1ccc(Cl)cc1)=N[C@@H](CC(=O)Nc1cccc(OCCOCCOCCNc3ccc4cnn(C5CCC(=O)NC5=O)c(=O)c4c3)c1)c1nnc(C)n1-2 (stereo partly drawn) [Example 42, 2-((S)-4-(4-chlorophenyl)-2,3,9-trimethyl-6H-thieno[3,2-f][1,2,4]triazolo[4,3-a][1,4]diazepin-6-yl)-N-(3-(2-(2-(2-((3-(2,6-dioxopiperidin-3-yl)-4-oxo-3,4-dihydrophthalazin-6-yl)amino)ethoxy)ethoxy)ethoxy)phenyl)acetamide]	20.3 nM	10.7 nM	< 250 nM	effectively degraded
Cc1sc2c(c1C)C(c1ccc(Cl)cc1)=N[C@@H](CC(=O)NCCNc1cccc3c(=O)n(C4CCC(=O)NC4=O)ncc13)c1nnc(C)n1-2 (stereo partly drawn) [Example 44, 2-((S)-4-(4-chlorophenyl)-2,3,9-trimethyl-6H-thieno[3,2-f][1,2,4]triazolo[4,3-a][1,4]diazepin-6-yl)-N-(2-((2-(2,6-dioxopiperidin-3-yl)-1-oxo-1,2-dihydrophthalazin-5-yl)amino)ethyl)acetamide]	> 1000 nM	930 nM	–	–
Cc1sc2c(c1C)C(c1ccc(Cl)cc1)=N[C@@H](CC(=O)NCCCCCNc1ccc3c(=O)n(C4CCC(=O)NC4=O)ncc3c1)c1nnc(C)n1-2 (stereo partly drawn) [Example 37, 2-((S)-4-(4-chlorophenyl)-2,3,9-trimethyl-6H-thieno[3,2-f][1,2,4]triazolo[4,3-a][1,4]diazepin-6-yl)-N-(5-((2-(2,6-dioxopiperidin-3-yl)-1-oxo-1,2-dihydrophthalazin-6-yl)amino)pentyl)acetamide]	< 1 nM	0.173 nM	< 250 nM	effectively degraded
Cc1sc2c(c1C)C(c1ccc(Cl)cc1)=N[C@@H](CC(=O)NCCOc1cccc3c(=O)n(C4CCC(=O)NC4=O)ncc13)c1nnc(C)n1-2 (stereo partly drawn) [Example 46, 2-((S)-4-(4-chlorophenyl)-2,3,9-trimethyl-6H-thieno[3,2-f][1,2,4]triazolo[4,3-a][1,4]diazepin-6-yl)-N-(2-((2-(2,6-dioxopiperidin-3-yl)-1-oxo-1,2-dihydrophthalazin-5-yl)oxy)ethyl)acetamide]	> 1000 nM	–	–	–
Cc1sc2c(c1C)C(c1ccc(Cl)cc1)=N[C@@H](CC(=O)NCc1cn(CCOCCOCCOCCNc3cccc4cnn(C5CCC(=O)NC5=O)c(=O)c34)nn1)c1nnc(C)n1-2 (stereo partly drawn) [Ex. 32, 2-((S)-4-(4-chlorophenyl)-2,3,9-trimethyl-6H-thieno[3,2-f][1,2,4]triazolo[4,3-a][1,4]diazepin-6-yl)-N-((1-(2-(2-(2-(2-((3-(2,6-dioxopiperidin-3-yl)-4-oxo-3,4-dihydrophthalazin-5-yl)amino)ethoxy)ethoxy)ethoxy)ethyl)-1H-1,2,3-triazol-4-yl)methyl)acetamide]	> 1000 nM	–	–	–

More lines, now with the values ahead:

IC50 [1, 3]	DC50 [2]	IC50 [1, 4]	BRD4 degradation (in words) [2]	Compound
> 1000 nM	–	–	–	Cc1sc2c(c1C)C(c1ccc(Cl)cc1)=N[C@@H](CC(=O)NCC1CCN(c3cccc4cnn(C5CCC(=O)NC5=O)c(=O)c34)CC1)c1nnc(C)n1-2 (stereo partly drawn) [Example 53, 2-((S)-4-(4-chlorophenyl)-2,3,9-trimethyl-6H-thieno[3,2-f][1,2,4]triazolo[4,3-a][1,4]diazepin-6-yl)-N-((1-(3-(2,6-dioxopiperidin-3-yl)-4-oxo-3,4-dihydrophthalazin-5-yl)piperidine-4-yl)methyl)acetamide]
30.6 nM	40.7 nM	< 250 nM	effectively degraded	Cc1sc2c(c1C)C(c1ccc(Cl)cc1)=N[C@@H](CC(=O)NCCN1CCN(c3ccc4cnn(C5CCC(=O)NC5=O)c(=O)c4c3)CC1)c1nnc(C)n1-2 (stereo partly drawn) [Example 49, 2-((S)-4-(4-chlorophenyl)-2,3,9-trimethyl-6H-thieno[3,2-f][1,2,4]triazolo[4,3-a][1,4]diazepin-6-yl)-N-(2-(4-(3-(2,6-dioxopiperidin-3-yl)-4-oxo-3,4-dihydrophthalazin-6-yl)piperazin-1-yl)ethyl)acetamide]
622 nM	–	–	–	Cc1sc2c(c1C)C(c1ccc(Cl)cc1)=N[C@@H](CC(=O)NCC1CCN(c3cccc4cnn(C5CCC(=O)NC5=O)c(=O)c34)C1)c1nnc(C)n1-2 (stereo partly drawn) [Example 50, 2-((S)-4-(4-chlorophenyl)-2,3,9-trimethyl-6H-thieno[3,2-f][1,2,4]triazolo[4,3-a][1,4]diazepin-6-yl)-N-((1-(3-(2,6-dioxopiperidin-3-yl)-4-oxo-3,4-dihydrophthalazin-5-yl)pyrrolidin-3-yl)methyl)acetamide]
101 nM	–	–	–	Cc1sc2c(c1C)C(c1ccc(Cl)cc1)=N[C@@H](CC(=O)NCCCCCNc1cccc3c(=O)n(C4CCC(=O)NC4=O)ncc13)c1nnc(C)n1-2 (stereo partly drawn) [Example 51, 2-[(9S)-7-(4-chlorophenyl)-4,5,13-trimethyl-3-thia-1,8,11,12-tetraazatricyclo[8.3.0.0^2,6]trideca-2(6),4,7,10,12-pentaen-9-yl]-N-(5-{[2-(2,6-dioxopiperidin-3-yl)-1-oxo-1,2-dihydrophthalazin-5-yl]amino}pentyl)acetamide]
127 nM	–	–	–	Cc1sc2c(c1C)C(c1ccc(Cl)cc1)=N[C@@H](CC(=O)NCCCCCNc1cccc3cnn(C4CCC(=O)NC4=O)c(=O)c13)c1nnc(C)n1-2 (stereo partly drawn) [Example 52, 2-[(9S)-7-(4-chlorophenyl)-4,5,13-trimethyl-3-thia-1,8,11,12-tetraazatricyclo[8.3.0.0^2,6]trideca-2(6),4,7,10,12-pentaen-9-yl]-N-(5-{[3-(2,6-dioxopiperidin-3-yl)-4-oxo-3,4-dihydrophthalazin-5-yl]amino}pentyl)acetamide]
